{"source": "patent US20150087723A1", "about": "“MICROBIAL COMPOSITION” (Rohm and Haas Company, priority 2011, published 2015)", "key": {"[1]": {"test_system": "Staphylococcus aureus (10788 strain)", "experiment": "Antimicrobial efficacy in water, 15 seconds contact, mean bacterial survival NMBS by colony count", "format": "cell-based", "conditions": "for NMBS: alone, S. Aureus, 15 seconds contact; for MBC (minimum biocidal concentration): single component, against S. Aureus, in water", "experimental": "Selected materials were also tested against a representative Gram positive Staphylococcus aureus.\nThis suspension was separated into equal volumes and centrifuged at 4000 rpm for 15 minutes. Following centrifugation the pellet was re-suspended in saline to give a final concentration of 0.35 OD620 equivalent to about 10^8 cells per millilitre for this particular organism. Here, OD620 indicates the absorbance of a sample in a cuvette of 1.0 cm path length at a wavelength of 620 nm. This bacterial stock was used for assaying against antimicrobial actives (in triplicate).\nThe following assay describes the testing of 8 materials using 6 dilutions across half of a 96-well micro litre plate (MTP). Using this approach it is possible to assay 16 actives (without replicates) with, one full dilution plate, replicating this set up in two halves of the plate columns, 1-6 and 7-12.\nIM solutions of the test actives were prepared in dimethylsulphoxide (DMSO).\nThis MTP was labeled as the “Screening plate”.\nIn another MTP, labeled as the “Dilution plate”, 270 μl of D/E neutralising solution from DIFCO Composition was added to column 1. The composition of the neutralising solution was as follows: pancreatic digest of casein, 5.0 g/L; Yeast Extract, 2.5 g/L; Dextrose, 10 g/L, sodium thioglycollate, 1.0 g/L, sodium thiosulphate, 6.0 g/L; sodium bisulphite, 2.5 g/L; Polysorbate 80, 5.0 g/L; lecithin 7.0 g/L; bromocresol purple, 0.02 g/L with a pH is the range 7.6±0.2.\n270 μl of tryptone diluent solution was added to all the remaining wells of the Dilution MTP (columns 2-6).\nBacterial stock (30 μl) was then added to the prepared 270 μl of the solution of actives in the Screening Plate and mixed, using a multichannel pipette with 8 tips to aspirate and dispense the same volume of bacterial stock in parallel to 8 wells in rows A-H. After a contact time of 15 seconds, the mixtures were quenched by transferring 30 μl volumes of the mixtures into the 270 μl D/E neutralising solution in the prepared dilution plate, using aspiration to mix. After exactly 5 minutes in the D/E neutralising solution, 30 μl volumes were transferred from column 1 to column 2 of the Dilution MTP and mixed, before transferring further 30 μl volumes from column 2 into column 3. This process was repeated serially diluting the bacteria across the plate to column 6.\n30 μl volumes from each well in the Dilution MTP were transferred onto pre-labeled segment of Tryptone Soya Agar (TSA) plates starting from the lowest bacterial concentration (highest dilution, column 6) to the highest bacterial concentration (column 1). The TSA plates were allowed to stand for ca. 2 hours so that the 30 μl inocula spots could dry and the plates were then inverted and incubated overnight at 37° C. before enumerating the bacterial colonies at the labeled dilutions to determine the effects of the actives on bacterial growth.\nMean bacterial survival numbers NMBS (expressed in Log CFU/ml) are obtained by first determining the segment of the TSA plate where the number of bacterial colonies is countable. From the colony number in this segment, NMBS is calculated by the formula: […]\nHere, Ncol is the colony count, and DF is the dilution factor taken from the MTP-well corresponding to the TSA plate segment (i.e. DF may range from 1 for the quench, to 6 for the highest dilution). The factor 100/3 is a conversion factor from the volume of the inocula spot to one millilitre.\nEvery assay test was performed in triplicate.\nThus, a value of NMBS of about 7 corresponds to a count of about 3 colonies from the fifth dilution well, i.e. with DF=5. Such a count of about 7 is generally observed when bacteria are exposed to non-biocidal materials. In case no surviving colonies are observed in any segment of the TSA plate, this is interpreted as complete kill and a value of NMBS=0 is reported.\nS. aureus Bacterial stock was prepared as shown below and the antibacterial efficacy of the active was carried out as explained earlier for E. Coli."}, "[2]": {"test_system": "Escherichia coli (E. coli—ATCC #10536)", "experiment": "Synergy test: high resolution MBC microtiter plate assay, phosphate buffer containing 35% dipropylene glycol, 15 seconds contact", "format": "cell-based", "conditions": "E. coli 10536; for SI (Synergy Index = Qa/QA + Qb/QB): at Qa and Qb, <1 synergy, 1 additivity, >1 antagonism", "from_the_text": "One measure of synergy is -the industrially accepted method described by Kull, F. C.; Eisman, P. C.; Sylwestrowicz, H. D. and Mayer, R. L., in Applied Microbiology 9:538-541 (1961), using the ratio determined by the formula:\nQa/QA+Qb/QB=Synergy Index (“SI”)\nwherein: QA=concentration of compound A (first component) in percent, acting alone, which produced an end point (MBC of Compound A). Qa =concentration of compound A in percent, in the mixture, which produced an end point. QB=concentration of compound B (second component) in percent, acting alone, which produced an end point (MBC of Compound B). Qb=concentration of compound B in percent, in the mixture, which produced an end point.\nWhen the sum of Qa/QA and Qb/QB is greater than one, antagonism is indicated. […] The lower the SI, the greater is the synergy shown by that particular mixture. The minimum biocidal concentration (MBC) of a microbicide is the lowest concentration tested under a specific set of conditions that provides complete kill of the tested microorganisms.\nSynergy tests were-conducted using standard microtiter plate assays with, phosphate buffer containing 35% dipropylene glycol (DPG). In this method, a wide range of combinations of chemicals was tested by conducting high resolution MBC assays of Component (A) in the presence of various concentrations of Component (B). High resolution MBCs were determined by adding varying amounts of microbicide to one column of a microtiter plate and doing subsequent ten-fold dilutions using an automated liquid handling system to obtain a series of closely spaced endpoints. The MBC plate was inoculated one column at a time with the test microorganism. An aliquot of the inoculated well was transferred at 15 seconds to a plate containing a neutralizing agent (D/E Neutralizing Broth), mixed and held for 5 minutes before being transferred to a growth plate containing trypticase soy broth (TSB). The TSB plate was incubated at 37° C. and read for the presence/absence of growth at 24 hours. The lowest level tested that provided complete kill (as evidenced by no growth in the microtitre plate) of the test organisms in 15 seconds is the minimum biocidal concentration (MBC).\nThe synergy of the combinations of the present invention was determined against a bacterium, Escherichia coli (E. coli—ATCC #10536), at a concentration of approximately 1×10^8 bacteria per mL. This microorganism is representative of natural contaminants in many consumer and industrial applications."}}, "note": "Where “and” joins values, the source holds several entries; their conditions need not be identical. Identical values can stand only once.", "data": [{"compound": "CCCc1ccccc1O", "note": "[2-n-propylphenol]", "values": [{"measurement": "NMBS", "setting": "[1]; 0.05% w/v", "value": 7.40, "unit": "log CFU/ml"}, {"measurement": "NMBS", "setting": "[1]; 0.125% w/v", "value": 7.06, "unit": "log CFU/ml"}, {"measurement": "NMBS", "setting": "[1]; 0.5% w/v", "value": 0, "unit": "log CFU/ml"}, {"measurement": "NMBS", "setting": "[1]; […] w/v", "value": 4.12, "unit": "log CFU/ml"}, {"measurement": "MBC (minimum biocidal concentration)", "setting": "[1]", "value": 0.5, "unit": "% w/v"}, {"measurement": "SI (Synergy Index = Qa/QA + Qb/QB)", "setting": "[2]", "value": 1.00}]}, {"compound": "CC(C)=CCC/C(C)=C/CO", "note": "[(E)-3,7-dimethylocta-2,6-dien-1-ol]", "values": [{"measurement": "NMBS", "setting": "[1]; 0.5% w/v", "value": 7.43, "unit": "log CFU/ml"}, {"measurement": "NMBS", "setting": "[1]; 1.0% w/v", "value": 7.18, "unit": "log CFU/ml"}, {"measurement": "MBC (minimum biocidal concentration)", "setting": "[1]", "value": ">1.5", "unit": "% w/v"}, {"measurement": "SI (Synergy Index = Qa/QA + Qb/QB)", "setting": "[2]", "value": 1.00}, {"measurement": "Qb: MBC of the second component (B) acting alone (QB)", "setting": "[2]; component alone (Qa = 0), complete kill in 15 seconds", "value": "0.3 weight % and 0.5 weight % and 0.6 weight %"}]}]}
